The NIST ThermoML archive (doi:10.1021/je060271a)

Conditions: 343.15 K, Liquid, Vibrating tube method

CCCCCC(=O)OCC(COC(=O)CCCCC)(COC(=O)CCCCC)COC(=O)CCCCC [pentaerythritol tetrahexanoate]
Conditions | mass density [kg/m3]
5696.7 kPa | 961.3
5737.4 kPa | 961.4
5771.4 kPa | 961.4
5805.5 kPa | 961.6
5839.7 kPa | 961.6
5880 kPa | 961.6
5913.7 kPa | 961.6
5948.1 kPa | 961.5
5988.1 kPa | 961.6
6021.6 kPa | 961.7
6055.8 kPa | 961.8
6095.9 kPa | 961.7
6130 kPa | 961.7
6163.7 kPa | 961.6
6303.4 kPa | 962.1
6343 kPa | 961.7
6375.6 kPa | 961.9
6408.1 kPa | 961.9
6440.4 kPa | 961.9
6478.6 kPa | 962.1
6509.9 kPa | 962
6541 kPa | 962.1
6572.6 kPa | 962.1
6608.9 kPa | 962.2
6752.3 kPa | 962.2
6777.5 kPa | 962.2
6802.4 kPa | 962.2
6831.3 kPa | 962.4
6854.2 kPa | 962.2
6882.2 kPa | 962.3
6906 kPa | 962.3
6930.2 kPa | 962.3
6953.5 kPa | 962.4
6977.2 kPa | 962.4
7001.2 kPa | 962.4
7029.7 kPa | 962.4
7054.1 kPa | 962.6
7078.2 kPa | 962.6
7102.1 kPa | 962.5
7130.7 kPa | 962.4
7154.9 kPa | 962.5
7179.4 kPa | 962.5
7208.3 kPa | 962.6
7233.7 kPa | 962.6
7260 kPa | 962.6
7284.4 kPa | 962.6
7309.2 kPa | 962.7
7338.6 kPa | 962.7
7363.8 kPa | 962.7
7388.9 kPa | 962.6
7418.5 kPa | 962.7
7443.8 kPa | 962.8
7469 kPa | 962.8
7499.3 kPa | 962.8
7524.9 kPa | 962.8
7767.9 kPa | 962.9
7799 kPa | 963
7825.1 kPa | 963.1
7851.3 kPa | 962.9
7877.7 kPa | 963.1
7909.5 kPa | 963.1
7936.7 kPa | 963
7963.5 kPa | 963.3
7989.9 kPa | 963.2
8021.4 kPa | 963.1
8047.9 kPa | 963.1
8074.4 kPa | 963.2
8105.7 kPa | 963.3
8131.9 kPa | 963.3
8158.1 kPa | 963.4
8189.5 kPa | 963.3
8215.6 kPa | 963.3
8242.5 kPa | 963.3
8269.2 kPa | 963.4
8301.8 kPa | 963.4
8328.6 kPa | 963.3
8355.6 kPa | 963.5
8382.4 kPa | 963.3
8415.2 kPa | 963.5
8442.4 kPa | 963.4
8469.3 kPa | 963.5
8502.3 kPa | 963.5
8646.3 kPa | 963.7
8736.5 kPa | 963.7
8764.6 kPa | 963.7
8798.5 kPa | 963.7
8827.2 kPa | 963.9
8855.8 kPa | 963.7
8890.1 kPa | 963.9
8919.1 kPa | 963.8
8953.7 kPa | 964
8982.7 kPa | 963.9
9012.2 kPa | 963.9
9047.3 kPa | 964
9077.3 kPa | 963.9
9107.5 kPa | 964
9137.5 kPa | 964
9173.3 kPa | 964
9362.4 kPa | 964.1
9399.5 kPa | 964.2
9430.7 kPa | 964.2
9462.9 kPa | 964.2
9496.5 kPa | 964.2
9527.5 kPa | 964.2
9565.2 kPa | 964.4
9800.6 kPa | 964.4
11008 kPa | 965.5
11050 kPa | 965.3
11087 kPa | 965.3
11123 kPa | 965.3
11159 kPa | 965.4
11202 kPa | 965.4
11238 kPa | 965.5
11274 kPa | 965.6
11701 kPa | 965.7
11736 kPa | 965.9
11778 kPa | 965.9
11813 kPa | 965.9
11848 kPa | 966
11889 kPa | 965.9
11924 kPa | 965.9
11958 kPa | 966
11998 kPa | 966.1
12031 kPa | 966.2
12159 kPa | 966.1
12190 kPa | 966.2
12236 kPa | 966.3
12264 kPa | 966.2
12287 kPa | 966.4
12310 kPa | 966.3
12337 kPa | 966.4
12361 kPa | 966.4
12383 kPa | 966.3
12808 kPa | 966.7
12827 kPa | 966.7
12842 kPa | 966.7
12857 kPa | 966.7
12873 kPa | 966.7
12892 kPa | 966.7
12909 kPa | 966.7
12927 kPa | 966.8
12989 kPa | 966.8
13011 kPa | 966.7
13039 kPa | 966.9
13064 kPa | 967
13093 kPa | 966.8
13131 kPa | 966.9
13169 kPa | 966.9
13207 kPa | 966.9
13245 kPa | 966.9
13290 kPa | 967
13328 kPa | 967.2
13373 kPa | 967
13409 kPa | 967.1
13559 kPa | 967.3
13566 kPa | 967.3
13908 kPa | 967.5
13933 kPa | 967.3
13985 kPa | 967.4
14253 kPa | 967.7
14284 kPa | 967.7
14335 kPa | 967.9
14361 kPa | 967.8
14387 kPa | 967.8
14418 kPa | 967.8
14469 kPa | 967.9
14756 kPa | 968.1
14783 kPa | 968.1
14816 kPa | 968.1
14843 kPa | 968.2
15289 kPa | 968.4
15317 kPa | 968.4
15350 kPa | 968.4
15379 kPa | 968.4
15408 kPa | 968.4
15436 kPa | 968.6
15470 kPa | 968.5
15498 kPa | 968.6
15525 kPa | 968.6
15558 kPa | 968.6
15584 kPa | 968.6
15615 kPa | 968.6
16026 kPa | 968.9
16081 kPa | 968.9
16112 kPa | 968.9
16138 kPa | 969
16163 kPa | 969
16189 kPa | 969.1
16220 kPa | 969
16246 kPa | 969.1
16272 kPa | 969
16303 kPa | 969
16328 kPa | 969.2
16525 kPa | 969.2
16552 kPa | 969.4
16584 kPa | 969.3
16611 kPa | 969.4
16638 kPa | 969.2
16666 kPa | 969.3
16699 kPa | 969.4
16726 kPa | 969.4
16754 kPa | 969.4
16782 kPa | 969.5
16815 kPa | 969.5
16844 kPa | 969.5
17457 kPa | 970
17484 kPa | 970
17516 kPa | 970
17543 kPa | 970
17571 kPa | 970
17599 kPa | 969.9
17632 kPa | 970
17686 kPa | 970
17714 kPa | 970.1
17747 kPa | 970.3
17775 kPa | 970.2
17808 kPa | 970.2
17836 kPa | 970
17864 kPa | 970.2
17898 kPa | 970.1
17926 kPa | 970.3
17954 kPa | 970.3
17983 kPa | 970.2
18017 kPa | 970.3
18046 kPa | 970.3
18080 kPa | 970.3
18109 kPa | 970.3
18137 kPa | 970.4
18165 kPa | 970.3
18200 kPa | 970.4
18228 kPa | 970.5
18261 kPa | 970.5
18289 kPa | 970.4
18316 kPa | 970.6
18346 kPa | 970.5
18370 kPa | 970.6
18394 kPa | 970.5
18418 kPa | 970.6
18446 kPa | 970.5
18471 kPa | 970.6
18495 kPa | 970.7
18524 kPa | 970.7
18656 kPa | 970.8
18681 kPa | 970.8
18706 kPa | 970.8
18732 kPa | 970.7
18761 kPa | 970.8
18787 kPa | 970.9
18812 kPa | 970.8
18842 kPa | 970.9
18867 kPa | 970.9
18923 kPa | 971
18949 kPa | 970.9
18975 kPa | 971.1
19008 kPa | 971
19034 kPa | 971
19060 kPa | 971.1
19085 kPa | 971
19632 kPa | 971.4
19654 kPa | 971.4
19677 kPa | 971.5
19700 kPa | 971.5
19726 kPa | 971.4
19747 kPa | 971.4
19768 kPa | 971.5
19790 kPa | 971.5
19809 kPa | 971.6
19830 kPa | 971.5
19850 kPa | 971.6
20110 kPa | 971.8
20121 kPa | 971.8
20124 kPa | 971.8
20125 kPa | 971.7
20126 kPa | 971.8
20127 kPa | 971.9
20128 kPa | 971.8
21458 kPa | 972.6
21485 kPa | 972.7
21513 kPa | 972.7
21545 kPa | 972.7
21573 kPa | 972.7
21600 kPa | 972.8
21630 kPa | 972.7
21654 kPa | 972.8
21678 kPa | 972.6
21708 kPa | 972.7
21835 kPa | 972.9
21865 kPa | 972.9
21890 kPa | 973
21915 kPa | 973
